One assay deals with colonocyte cell membrane. Conditions: cited from earlier work.
Assay [1] concerns benign breast epithelial cells. Put plainly: Cell membrane potential, potentiometric fluorescent probe (FIG. 7), benign cells. To be noted: estradiol added to the culture media; approximately −50 mV in its absence. The format is cell-based, human. The protocol: (§1) Measurements were made using a potentiometric fluorescent probe, and ratiometric measurements, which are calibrated using valinomycin and [K^+]-gradients. Ψs were measured in the presence (closed circles) and absence (open circles) of estradiol (the active, metabolite of estrogen). Each symbol is the mean measurement. The upper error bar is the standard error of the mean, and the lower error bar is the 95% confidence level for the observations. The addition of estrogen to cultured breast epithelial cells results in an instantaneous increase in Ψ (data not shown) as well as the transepithelial potential see. FIG. 8. Transepithelial potential (VT) of an epithelium is the sum of the apical (luminal) cell membrane potential (VA) and the basolateral (abluminal) cell membrane potential (VBL). Therefore VT=VA+VBL (changes in VA and/or VBL will therefore alter VT or transepithelial potential). […] Malignant and transformed cells have a Ψ of between −31 and −35 mV in the absence of estradiol and approximately 50 mV when estradiol is present in the culture medium.

The subject of assay [2] is Malignant and transformed cells. The experiment in a line: Cell membrane potential, potentiometric fluorescent probe (FIG. 7), malignant and transformed cells. The format is cell-based, human. Conditions: estradiol present in the culture medium; −31 to −35 mV in its absence. The protocol:
as §1

Assay [3] has as its system malignant human breast epithelial cells. Put plainly: Transepithelial potential of monolayers in Ussing chambers (FIG. 8), malignant epithelia. It is filed as cell-based. The protocol:
(§2) It should be noted, that the instantaneous response, illustrated in FIG. 8, is greater in malignant epithelia, whereas the chronic or sustained exposure to estradiol results in a lower increase in TEP (transepithelial, electropotential) in malignant cells. Concurrent measurement of surface electropotential and impedance allow the more accurate diagnosis of cancer. […] The cells were grown, as monolayers on Millipore filters and grew to confluence in 7 to 10 days. The epithelia were then mounted in modified Using chambers and the TEP was measured using a voltage clamp. Increasing doses of estradiol between 0 and 0.8 μM were added (x-axis). The transepithelial potential was measured after each addition and the TEP was measured (y-axis). The different dose response is apparent for benign and malignant epithelia. Malignant epithelia have a lower TEP but undergo an instantaneous increase in TEP of approximately 9 mV (becomes more electronegative and reaches a level of <−6 mV) after exposure to only 0.1 μM estradiol and then depolarize to approximately −2 mV with increasing doses of estradiol up to about 0.5 μM. […] 0.3 μM and then remain persistently elevated (higher electro negativity), unlike the malignant epithelia, with increasing doses of estradiol.

Assay [4] deals with benign human breast epithelial cells. The experiment in a line: Transepithelial potential of monolayers in Ussing chambers (FIG. 8), benign epithelia. The format is cell-based. Conditions: increasing doses 0 to 0.8 μM. The protocol: as §2
The subject of assay [5] is apical K+ channels of human colonic mucosa. Put plainly: Short circuit current of human colonic epithelium ex-vivo (FIG. 12). To be noted: 30 mM mucosal; normal colon; 0.1 mM amiloride; elevated serosal K+. The protocol:
The potassium permeability of the apical membrane of human colonic mucosa (P^Ka) was determined in surgical specimens of controls and grossly normal-appearing mucosa obtained 10-30 cm proximal to colorectal adenocarcinomas. The mucosa was, mounted in Using chambers and the basolateral, membrane resistance and voltage were nullified by elevating the K^+ in the serosal bathing solution. The apical sodium (Na^+) conductance was blocked with 0.1 mM amiloride. This protocol reduces the equivalent circuit model of the epithelium to an apical membrane conductance and electromotive force in parallel with the paracellular pathway as has been verified by microelectrode studies. […] In cancer-bearing colon the reduction in Isc is to −65 μA/cm^2. The serosal bath was remained constant at 125 mM [K].

The subject of another assay is breast epithelium. To be noted: 20 μM luminal, cited from earlier work.
The subject of the next assay is distal colon. Put plainly: Transepithelial potential (VT) of colon during treatment. To be noted: administered over the same period (four weeks). The format is in vivo, CF1 mice.

Here are results for five compounds from US8332025B2, “Method and system for detecting electrophysiological changes in pre-cancerous and cancerous tissue and epithelium” (Epi-Sci, LLC, priority 2005, dated 2012).

Read-outs that look alike come from different tables or passages of the source. A value given as a limit tells only on which side of the number the result lay.

As to `CNNC` [DMH, 1,2 dimethylhydrazine], the “VA (apical membrane voltage)” value with colonocyte cell membrane (after 6 weeks of treatment, from −74.9 mV) is −61.4 mV; in the assay with colonocyte cell membrane (by 20 weeks of treatment), −34 mV.
For the compound `C[C@]12CC[C@@H]3c4ccc(O)cc4CC[C@H]3[C@@H]1CC[C@@H]2O` [estradiol, 17-β-estradiol], in assay [1], the “cell membrane potential (Ψ)” value was ~−70 mV. The “cell membrane potential (Ψ)” value in assay [2] is recorded as “approximately 50 mV”. Further, in assay [3] (0.1 μM), the TEP level reached is on record as < −6 mV and the “instantaneous increase in TEP” value is “approximately 9 mV”. Moreover, in assay [3] (up to about 0.5 μM), the “TEP after depolarization with increasing doses” value is listed as “approximately −2 mV”. In assay [4], the “dose at which the TEP response peaks” value was ~0.3 µM.
Take `CC[N+](CC)(CC)CC` [TEA]: the “effect on short circuit current (Isc)” value in assay [5] was “abrupt increase in Isc”.
As for `N=C(N)NC(=O)c1nc(Cl)c(N)nc1N` [amiloride], the “increase in transepithelial resistance” value with breast epithelium was 17%. Moreover, in the assay with breast epithelium (from −5.9±0.5 mV, mean±SEM), the “depolarization of the transepithelial potential (change)” value is given as “+3.1±0.5 mV”.
Regarding `O=c1[nH]cc(F)c(=O)[nH]1` [5-fluorouracil], in the assay on distal colon, the “effect on transepithelial potential (VT)” value was “did not cause a reduction in VT”.
